# Assay results published in patent US9670217B2, “Process for preparing chlorins and their pharmaceutical uses” (UNIVERSIDADE DE COIMBRA, priority 2008, dated 2017).
# Experiments:
# Assay in all cases: Cytotoxicity in the dark, resazurin assay
# Type in all cases: cell-based
# [1] = tested on: CT26 (mouse colon carcinoma)
# Experimental: The cell lines employed in laser irradiation were the HT-29 (human colon carcinoma), PC-3 (human prostate carcinoma), SW2 (human small cell lung cancer), A-549 (human non-small cell lung cancer). S91/I3 (mouse melanoma) and CT26 (mouse colon carcinoma). They were used both for cytotoxicity and photocytotoxicity experiments. PC-3. SW2 and S91113 cells were cultured in RPMI-1640 medium (Sigma-Aldrich, Steinheim, Germany) and HT-29, A-549 and CT26 cells were cultured in Dulbecco's Modified Eagle Medium (DMEM) (Cambrex Bioscience, Verviers, Belgium). […] For the in vitro studies, cells at 85-90% confluence, were detached with Trypsin-Versene-EDTA solution (Cambrex Bioscience, Verviers, Belgium), counted and seeded in flat-bottom 96-well plates at the desired densities.
# Cell viability assay. In the end of the experiences cell viability was evaluated by the resazurin reduction assay. […] The absorbance values of each well were measured at 540 nm and 630 nm using a microplate reader Multiskan Ex (Thermo-Electron Corporation, Vartaa, Finland).
# Cytotoxicity. […] After the incubation the cell viability was evaluated. […] Cytotoxicity was quantified by expressing cell death relatively to untreated cells (% of control cells). […]
# [2] = tested on: SW2 (human small cell lung cancer); settings: SW2, incubation 48 h in the dark; read-out: IC50 dark toxicity
# Experimental: (§1) The cell lines employed in laser irradiation were the HT-29 (human colon carcinoma), PC-3 (human prostate carcinoma), SW2 (human small cell lung cancer), A-549 (human non-small cell lung cancer). S91/I3 (mouse melanoma) and CT26 (mouse colon carcinoma). They were used both for cytotoxicity and photocytotoxicity experiments. PC-3. SW2 and S91113 cells were cultured in RPMI-1640 medium (Sigma-Aldrich, Steinheim, Germany) and HT-29, A-549 and CT26 cells were cultured in Dulbecco's Modified Eagle Medium (DMEM) (Cambrex Bioscience, Verviers, Belgium). Both cell culture mediums were supplemented with 10% heat-inactivated Fetal Bovine Serum (FBS) (Cambrex Bioscience, Verviers, Belgium) and 100 IU/ml penicillin-100 μg/ml streptomycin (Cambrex Bioscience, Verviers, Belgium). The DMEM medium used for CT26 cells was also supplemented with HEPES 10 mM. Cell lines were maintained in 75 cm^2 flasks (Orange Scientific, Braine-l'Alleud, Belgium) at 37° C. in humidified atmosphere with 5% CO2. For the in vitro studies, cells at 85-90% confluence, were detached with Trypsin-Versene-EDTA solution (Cambrex Bioscience, Verviers, Belgium), counted and seeded in flat-bottom 96-well plates at the desired densities.
# (§2) Cell viability assay. In the end of the experiences cell viability was evaluated by the resazurin reduction assay. Briefly, resazurin (Sigma-Aldrich, Steinhelm, Germany) stock solution (0.1 mg/ml in phosphate buffer saline (PBS) pH 7.4) was diluted 10% in culture medium without FBS or antibiotics and 200 μl were added to the cells in each well. Plates were incubated for 3-4 h at 37° C. The absorbance values of each well were measured at 540 nm and 630 nm using a microplate reader Multiskan Ex (Thermo-Electron Corporation, Vartaa, Finland).
# (§3) Cytotoxicity. Cells were seeded in flat-bottom 96-well plates (Orange Scientific, Braine-l'Alleud, Belgium) in 100 μl of culture medium and were allowed to adhere overnight. The photosensitizer was added to the cells (diluted in 100 μl culture medium) at final concentrations between 0.01 and 1 mM. Each concentration was tested in quadruplicate. The incubation periods in the dark at 37° C. were two times the doubling time for the tested cell line. After the incubation the cell viability was evaluated. In parallel control experiments, cells were incubated without the drug. Cytotoxicity was quantified by expressing cell death relatively to untreated cells (% of control cells). The results were plotted as dose response curves (% of cell death as a function of the concentration of the DRUG), which allow the determination of the concentration that inhibit 50% of cell growth (IC50).
# S91/I3 (mouse melanoma) = settings: S91I3, incubation 40 h in the dark; read-out: IC50 dark toxicity
# Experimental: as §1, §2, §3
# [3] = tested on: HT-29 (human colon carcinoma); settings: HT-29, dark
# Experimental: as §1, §2, §3
compound,measurement,setting,value
"CCNS(=O)(=O)c1ccc(Cl)c(-c2c3nc(c(-c4c(Cl)ccc(S(=O)(=O)NCC)c4Cl)c4ccc([nH]4)c(-c4c(Cl)ccc(S(=O)(=O)NCC)c4Cl)c4nc(c(-c5c(Cl)ccc(S(=O)(=O)NCC)c5Cl)c5ccc2[nH]5)CC4)CC3)c1Cl [Luzitin-Cl2Et, 5,10,15,20-tetrakis(2,6-dichloro-3-N-ethylsulfamoylphenyl)bacteriochlorin]",highest concentration that causes relatively no effect in viability in the dark,[1],50 µM
"O=S(=O)(O)c1ccc(Cl)c(-c2c3nc(c(-c4cc(S(=O)(=O)O)ccc4Cl)c4ccc([nH]4)c(-c4cc(S(=O)(=O)O)ccc4Cl)c4nc(c(-c5cc(S(=O)(=O)O)ccc5Cl)c5ccc2[nH]5)CC4)CC3)c1 [Luzitin-Cl, 5,10,15,20-tetrakis(2-chloro-5-sulfonylphenyl)bacteriochlorin]",IC50,[2],400 µM
same,IC50,S91/I3 (mouse melanoma),500 µM
"CNS(=O)(=O)c1ccc(F)c(-c2c3nc(c(-c4cc(S(=O)(=O)NC)ccc4F)c4ccc([nH]4)c(-c4cc(S(=O)(=O)NC)ccc4F)c4nc(c(-c5cc(S(=O)(=O)NC)ccc5F)c5ccc2[nH]5)CC4)CC3)c1 [Luzitin-FMet, 5,10,15,20-tetrakis(2-fluoro-5-N-methylsulfamoylphenyl)bacteriochlorin]",highest concentration that causes relatively no effect in viability in the dark,[3],50 µM
